Experimental data as given in US20030017565A1, “COMPOSITION AND METHOD FOR TREATING A POROUS ARTICLE AND USE THEREOF” (priority 1996, published 2003).

Tests used:
[1] = leaching of Japan cedar blocks after initial vacuum and pressure impregnation (Example 10); format: physicochemical; conditions: initial vacuum then 10 atm, enzyme added, 5% LSA; for Elution Rate (%) LSA: pH 8.1-8.8; for Elution Rate (%) Chemical Agent: pH 8.1-8.8, species as bracketed (Copper, Zinc, Nickel, H = hinokitiol), else the agent named
Protocol: A reaction mixture for treating wood containing 30 ppm of the freeze-dried product described in Example 1, 5% of commercially available lignosulfonic acid, and one or more various chemical agents was prepared, and Japan cedar wood blocks (3 cm×3 cm×2 cm, butt end: 3 cm×3 cm) were subjected to pressure reduction (initial vacuum) and impregnation treatment under pressure using the reaction mixture in the same manner as in Examples 3 and 4.
The pressure reduction and pressurization were performed by setting a vessel for impregnation operation as shown in FIG. 1 in a pressure reactor (5 liter in volume), conducting initial vacuum from 600 to 720 mmHg for 30 minutes using a vacuum pump, tilting the whole apparatus to allow the treatment liquid to flow toward the wood so that the wood blocks can be dipped in the treatment liquid, and then pressurized at 10 atm for 1 hour by flowing high pressure nitrogen gas in the reactor.
The wood blocks after the impregnation treatment were further subjected to drying/macromolecularization reaction and leaching treatment in the same manner as in Examples 3 and 4. The amounts of the chemical agents and lignosulfonic acid which were eluted were calculated and compared taking the amounts of them injected upon the impregnation treatment as 100%.

[2] = leaching of Japan cedar blocks treated with LSA and chemical agents (Example 4); format: physicochemical; conditions: 5% LSA; for Elution Rate (%) Chemical Agent: species measured as bracketed (Copper, Zinc, Nickel, Boron, H = hinokitiol), else the agent named
Protocol: For chemical agents having low solubilities, they were added to aqueous lignosulfonic acid solution after it was warmed to 60 to 90° C., and it was cooled at 25° C. after the chemical agents were suspended, dispersed, dissolved by Vortex-Mixer, […]
The amount of lignosulfonic acid which leached off was determined by measurement of the absorbance at 280 nm, and the amount of the chemical agent which leached off was determined by complex formation and spectrophotometry using PAN (1-(2-pyridylazo)-2-naphthol, Aldrich Chemical Company) or quinalizarin (Wako Pure Chemicals), separation, identification and determination, using HPLC or gas chromatography, or atomic absorption analysis were performed, followed by calculation of the amount of the chemical agents which was eluted. When the chemical agents had absorption at 280 nm, the concentration of lignosulfonic acid was calculated by measuring the absorbance at 280 nm of the chemical agents of which the concentration was measured by the above-described method and subtracting an influence by the chemical agent from the absorbance at 280 nm of the liquid which was eluted. The amounts of the chemical agents and lignosulfonic acid which were eluted were calculated and compared taking the amounts of them injected upon the impregnation treatment as 100%.

[3] = leaching of cypress blocks, Myrothecium roridum enzyme (Example 5); format: physicochemical; conditions: 40 ppm Example 2 enzyme, 5% LSA; for Elution Rate (%) LSA: pH 8.2-8.8; for Elution Rate (%) Chemical Agent: pH 8.2-8.8, species as bracketed (Copper, H = hinokitiol), else the agent named
Protocol: (§1) The amounts of the chemical agents and lignosulfonic acid which were eluted were calculated and compared taking the amounts of them injected upon the impregnation treatment as 100%.

house termite = experiment: termite preventing test on treated wood, weight reduction; format: in vivo; conditions: leached wood blocks of Example 10, LSA added, enzyme added, pH 8.1-8.5, about 40 cm from termite nest, 2 months
Excerpt: The wood blocks were placed on the soil at a distance of about 40 cm around the nest of house termite. After they were left to stand for 2 months, termite preventive properties were observed. […] Then, the dry weight thus obtained was compared with the weight of the wood blocks before the placement on the soil, thus calculating a weight reduction rate.

[4] = leaching of cypress blocks, peroxidase + alcohol oxidase (Example 7); format: physicochemical; conditions: 5 U/ml peroxidase + 5 U/ml alcohol oxidase + 1% methanol; for Elution Rate (%) LSA: pH 8.1-8.8; for Elution Rate (%) Chemical Agent: pH 8.1-8.8, species as bracketed (Copper, Zinc, Boron, H = hinokitiol), else the agent named
Excerpt: The peroxidase used was obtained from horse radish (Type II, Sigma) and the alcohol oxidase used was obtained from Candida boidini (Boehringer Mannheim Biochemica).

[5] = leaching of Japan cedar blocks, treating mixture with tung oil (Example 8); format: physicochemical; conditions: Example 1 enzyme, 5% LSA, 2,000 ppm tung oil
Protocol: as §1

[6] = system: Tyromyces palustris FEPRI 0507; experiment: antifungal test on treated wood, weight loss; format: cell-based; conditions: leached wood blocks of Example 10, LSA added, enzyme added, pH of treating liquid 8.1-8.8, 26° C., 12 weeks
Protocol: (§2) After completion of the antifungal operation, the wood blocks were taken out of the incubator and hyphae on the surface thereof were removed sufficiently. After air dried for about 24 hours, the wood blocks were dried sufficiently using a drier and a desiccator in the same manner as described above and their weight was measured. Percent weight loss (%) was calculated by comparing the weight obtained with the weight before the antifungal operation.

[7] = system: Coriolus versicolor FEPRI 1030; experiment: antifungal test on treated wood, weight loss; format: cell-based; conditions: leached wood blocks of Example 10, LSA added, enzyme added, pH of treating liquid 8.1-8.8, 26° C., 12 weeks
Protocol: as §2

[8] = leaching of cypress blocks, bilirubin oxidase (Example 6); format: physicochemical; conditions: for Elution Rate (%) LSA: pH 8.1-8.8; for Elution Rate (%) Chemical Agent: pH 8.1-8.8, species as bracketed (Copper, Zinc, Nickel, Boron, H = hinokitiol), else the agent named
Excerpt: Taking the amounts of the lignosulfonic acid (LSA) and chemical agent as injected upon the impregnation treatment as 100%, respectively, the amounts of the substances which were eluted were compared.

[9] = copper retention rate in Japan cedar sapwood after three leachings (Example 23); format: physicochemical; conditions: pH of treating liquid 4.6, three leachings of 8 hours
Protocol: Aqueous solutions having the compositions listed in table 15 below were prepared and adjusted to pH 8.5 with sodium hydroxide. Those compositions which contained no ethylenediamine (EDA) nor ethanolamine (MEA) were tested at pH 4.5 since copper is deposited as copper hydroxide in alkaline regions. […] The wood blocks were taken out of the solutions and air-dried at 28 ° C. for 72 hours and then dried in a forced air circulation drier at 60° C. for 48 hours. After the drying, the wood blocks were submerged in 10 fold volume of deionized water at 25° C. with stirring at 300 rpm for 8 hours for leaching. This operation was repeated three times. The rate of copper fixed to wood was calculated from the sum of the amounts of eluted copper ions by the three elution operations to the total amount of copper ions in the solution impregnated in the wood.

[10] = leaching of Japan cedar blocks after reduced pressure impregnation (Example 3); format: physicochemical; conditions: no LSA, enzyme not added, pH 4.1
Protocol: The pH was adjusted with sodium hydroxide or sulfuric acid. The reduced pressure impregnation operation was performed by a handy method, i.e., by applying a reduced pressure of 650 to 700 mmHg for 1 hour after dipping the Japan cedar blocks in the treatment liquid and then keeping the blocks at atmospheric pressure for 30 minutes as they were dipped in the treatment liquid. By measuring the weights of each block before and after the impregnation treatment, it was confirmed that as a result of the pressure reduction treatment operation, a sufficient amount of the treating liquid (10 to 14 g) was injected in the blocks. Further, the wood blocks after the impregnation treatment were placed in an incubator at 28° C., for 5 days to effect drying and macromolecularization reaction.

[11] = in the absence of enzyme (comparison), pH 8.1-8.8
[12] = in the presence of enzyme, Japan cedar, pH of treating agent 8.1-8.8
[13] = in the presence of enzyme, pH 8.1-8.8

CC(C)c1cccc(=O)c(O)c1 [1000 ppm Hinokitiol, Hinokitiol]
Elution Rate (%) LSA [1]: 0.4% | Elution Rate (%) Chemical Agent [1]: 2.3% | Elution Rate (%) LSA [2, 11]: 24.2% | Elution Rate (%) Chemical Agent [2, 11]: 14.4% | Elution Rate (%) LSA [2, 12]: 0.6% | Elution Rate (%) Chemical Agent [2, 13]: 3.1% | Elution Rate (%) LSA [3]: 2.2% | Elution Rate (%) Chemical Agent [3]: 7.2% | Weight Reduction Rate (%) (house termite): 2.2% | Elution Rate (%) LSA [4]: 4.5% | Elution Rate (%) Chemical Agent [4]: 6.2% | Elution Rate (%) LSA ([5]; pH 8.1-8.5): 1.1% | Elution Rate (%) Chemical Agent ([5]; pH 8.1-8.5, species as bracketed (Copper, Zinc, Nickel, H = hinokitiol), else the agent named): 0.5% | Weight Loss (%) Tyromyces palustris [6]: 2.2% | Weight Loss (%) Coriolus versicolor [7]: 1.5% | Elution Rate (%) LSA [8]: 1.7% | Elution Rate (%) Chemical Agent [8]: 5.4%

(+)-Catechin · H2O [1000 ppm (+)-Catechin · H2O]
Elution Rate (%) LSA [1]: 2.1% | Elution Rate (%) Chemical Agent [1]: 2.0% | Elution Rate (%) LSA [2, 11]: 23.4% | Elution Rate (%) Chemical Agent [2, 11]: 11.3% | Elution Rate (%) LSA [2, 12]: 2.7% | Elution Rate (%) Chemical Agent [2, 13]: 2.8% | Elution Rate (%) LSA [3]: 5.2% | Elution Rate (%) Chemical Agent [3]: 6.6% | Elution Rate (%) LSA [4]: 5.3% | Elution Rate (%) Chemical Agent [4]: 8.7% | Weight Loss (%) Tyromyces palustris [6]: 9.9% | Weight Loss (%) Coriolus versicolor [7]: 8.3% | Elution Rate (%) LSA [8]: 4.4% | Elution Rate (%) Chemical Agent [8]: 6.3%

O=S(=O)([O-])[O-].[Cu+2] [0.04 M CuSO4, copper (II) sulfate]
Copper Retention Rate (%) ([9]; enzyme added (20 ppm)): 19.3% | Copper Retention Rate (%) ([9]; enzyme not added): 21.8% | Elution Rate (%) Copper [10]: 58.5%

O=C(OC[C@H]1O[C@@H](OC(=O)c2cc(O)c(O)c(OC(=O)c3cc(O)c(O)c(O)c3)c2)[C@H](OC(=O)c2cc(O)c(O)c(OC(=O)c3cc(O)c(O)c(O)c3)c2)[C@@H](OC(=O)c2cc(O)c(O)c(OC(=O)c3cc(O)c(O)c(O)c3)c2)[C@@H]1OC(=O)c1cc(O)c(O)c(OC(=O)c2cc(O)c(O)c(O)c2)c1)c1cc(O)c(O)c(OC(=O)c2cc(O)c(O)c(O)c2)c1 [500 ppm Tannic acid, Tannic acid]
Elution Rate (%) LSA [1]: 2.3% | Elution Rate (%) Chemical Agent [1]: 3.1% | Elution Rate (%) LSA [2, 11]: 24.2% | Elution Rate (%) Chemical Agent [2, 11]: 21.0% | Elution Rate (%) LSA [2, 12]: 3.8% | Elution Rate (%) Chemical Agent [2, 13]: 4.0% | Elution Rate (%) LSA [3]: 6.8% | Elution Rate (%) Chemical Agent [3]: 8.7% | Elution Rate (%) LSA [4]: 9.2% | Elution Rate (%) Chemical Agent [4]: 10.3% | Weight Loss (%) Tyromyces palustris [6]: 12.9% | Weight Loss (%) Coriolus versicolor [7]: 10.8% | Elution Rate (%) LSA [8]: 6.6% | Elution Rate (%) Chemical Agent [8]: 8.3%
